From the supplement of paper PMC6045584
± gives the standard deviation of the averaged measurements.

Compound: CC[C@@H](C(=O)[C@@H](C)[C@@H](O)[C@H](C)[C@@H]1O[C@@H]([C@@H](CC)C(=O)O)CC[C@@H]1C)[C@H]1O[C@]2(C=C[C@@H](O)[C@]3(CC[C@@](C)([C@H]4CC[C@](O)(CC)[C@H](C)O4)O3)O2)[C@H](C)C[C@@H]1C [SALINOMYCIN]
Test: surviving fraction relative to DMSO-only wells; higher = less growth inhibition
Conditions: 50 nM; exposure time: 5 days
In short: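 Surviving fraction is CellTiter-Glo luminescence divided by the median of wells given DMSO only. For this, log-phase tumour cell lines went into 384-well plates at 250–500 cells per well and, 24 hours later, into five days of continuous inhibitor exposure at 0.5, 1, 5, 10, 50, 100, 500 and 1000 nM. Lines were screened three times and retained only if replicate Pearson r >0.7 and median Z' >0.3.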

| Test System | surviving fraction |
| --- | --- |
| NOS1 BONE | 1.06 ± 0.083 |
| SUM149.B1*.S BREAST | 0.982 ± 0.051 |
| 93VU HEADNECK | 0.976 ± 0.08 |
| LM7 BONE | 1.05 ± 0.053 |
| 143B BONE | 1.03 ± 0.018 |
| SUM159 BREAST | 0.648 ± 0.14 |
| SUM149 BREAST | 1.06 ± 0.092 |
| MDAMB361 BREAST | 0.909 ± 0.047 |
| SAOS2 BONE | 1.06 ± 0.097 |
| ASKA SYNOVIAL | 1.14 ± 0.034 |
| HCC1395 BREAST | 1.16 ± 0.13 |
| HCC1954 BREAST | 0.953 ± 0.011 |
| CME SYNOVIAL | 1.14 ± 0.07 |
| VCAP PROSTATE | 1.08 ± 0.13 |
| YAMATO SYNOVIAL | 1.05 ± 0.08 |
| HCC202 BREAST | 1.03 ± 0.18 |
| HELA CERVIX | 1.03 ± 0.06 |
| SG27 HEADNECK | 1.12 ± 0.08 |
| CAL72 BONE | 1.11 ± 0.021 |
| MDAMB134 BREAST | 1.02 ± 0.069 |

| Test System | surviving fraction |
| --- | --- |
| C33A CERVIX | 1.08 ± 0.035 |
| SKBR3 BREAST | 1.05 ± 0.12 |
| MHM BONE | 1.037 ± 0.009 |
| VP229 BREAST | 0.831 ± 0.14 |
| SYO1 SYNOVIAL | 0.949 ± 0.04 |
| ZR751 BREAST | 1.17 ± 0.15 |
| KPD BONE | 0.93 ± 0.032 |
| SIHA CERVIX | 0.9557 ± 0.0072 |
| DU4475 BREAST | 0.793 ± 0.27 |
| BT549 BREAST | 0.891 ± 0.35 |
| COLO320DM LARGE INTESTINE | 1.14 ± 0.12 |
| T47D BREAST | 1.07 ± 0.015 |
| H23 LUNG | 1.21 ± 0.03 |
| NCIH441 LUNG | 1.12 ± 0.023 |
| HCT15 LARGE INTESTINE | 1.03 ± 0.041 |
| SCC90 HEADNECK | 1.17 ± 0.2 |
| MDAMB453 BREAST | 1.02 ± 0.058 |
| MG63 BONE | 1.006 ± 0.003 |
| A549 LUNG | 1.03 ± 0.028 |
| MDAMB468 BREAST | 1.12 ± 0.022 |

Same assay, conditions: 100 nM; exposure time: 5 days

| Test System | surviving fraction |
| --- | --- |
| NOS1 BONE | 1.09 ± 0.062 |
| SUM149.B1*.S BREAST | 0.768 ± 0.032 |
| 93VU HEADNECK | 0.91 ± 0.053 |
| LM7 BONE | 1.09 ± 0.051 |
| 143B BONE | 1.03 ± 0.035 |
| SUM159 BREAST | 0.475 ± 0.18 |
| SUM149 BREAST | 0.836 ± 0.052 |
| MDAMB361 BREAST | 0.845 ± 0.035 |
| SAOS2 BONE | 1.11 ± 0.05 |
| ASKA SYNOVIAL | 1.03 ± 0.016 |
| HCC1395 BREAST | 1.11 ± 0.041 |
| HCC1954 BREAST | 0.725 ± 0.04 |
| CME SYNOVIAL | 0.947 ± 0.094 |
| VCAP PROSTATE | 1.04 ± 0.023 |
| YAMATO SYNOVIAL | 0.655 ± 0.029 |
| HCC202 BREAST | 0.737 ± 0.16 |
| HELA CERVIX | 0.885 ± 0.056 |
| SG27 HEADNECK | 1.1 ± 0.074 |
| CAL72 BONE | 1.1 ± 0.049 |
| MDAMB134 BREAST | 1.05 ± 0.021 |

| Test System | surviving fraction |
| --- | --- |
| C33A CERVIX | 1.08 ± 0.13 |
| SKBR3 BREAST | 0.98 ± 0.17 |
| MHM BONE | 1.081 ± 0.0025 |
| VP229 BREAST | 0.52 ± 0.021 |
| SYO1 SYNOVIAL | 0.804 ± 0.1 |
| ZR751 BREAST | 0.787 ± 0.089 |
| KPD BONE | 0.7467 ± 0.005 |
| SIHA CERVIX | 0.928 ± 0.052 |
| DU4475 BREAST | 0.665 ± 0.32 |
| BT549 BREAST | 0.73 ± 0.39 |
| COLO320DM LARGE INTESTINE | 0.966 ± 0.081 |
| T47D BREAST | 1.07 ± 0.046 |
| H23 LUNG | 1.19 ± 0.028 |
| NCIH441 LUNG | 1.05 ± 0.049 |
| HCT15 LARGE INTESTINE | 0.964 ± 0.015 |
| SCC90 HEADNECK | 0.963 ± 0.057 |
| MDAMB453 BREAST | 0.993 ± 0.045 |
| MG63 BONE | 0.871 ± 0.0095 |
| A549 LUNG | 0.97 ± 0.03 |
| MDAMB468 BREAST | 1.09 ± 0.04 |

Same assay, conditions: 500 nM; exposure time: 5 days

| Test System | surviving fraction |
| --- | --- |
| NOS1 BONE | 0.0907 ± 0.013 |
| SUM149.B1*.S BREAST | 0.3677 ± 0.0023 |
| 93VU HEADNECK | 0.304 ± 0.041 |
| LM7 BONE | 0.588 ± 0.04 |
| 143B BONE | 0.9815 ± 0.00071 |
| SUM159 BREAST | 0.32 ± 0.088 |
| SUM149 BREAST | 0.424 ± 0.042 |
| MDAMB361 BREAST | 0.753 ± 0.014 |
| SAOS2 BONE | 0.763 ± 0.016 |
| ASKA SYNOVIAL | 0.797 ± 0.073 |
| HCC1395 BREAST | 0.843 ± 0.13 |
| HCC1954 BREAST | 0.295 ± 0.0032 |
| CME SYNOVIAL | 0.351 ± 0.018 |
| VCAP PROSTATE | 0.245 ± 0.044 |
| YAMATO SYNOVIAL | 0.359 ± 0.013 |
| HCC202 BREAST | 0.189 ± 0.037 |
| HELA CERVIX | 0.942 ± 0.056 |
| SG27 HEADNECK | 0.249 ± 0.028 |
| CAL72 BONE | 0.647 ± 0.087 |
| MDAMB134 BREAST | 1.32 ± 0.041 |

| Test System | surviving fraction |
| --- | --- |
| C33A CERVIX | 0.328 ± 0.024 |
| SKBR3 BREAST | 0.238 ± 0.025 |
| MHM BONE | 0.921 ± 0.044 |
| VP229 BREAST | 0.139 ± 0.017 |
| SYO1 SYNOVIAL | 0.293 ± 0.02 |
| ZR751 BREAST | 0.408 ± 0.055 |
| KPD BONE | 0.235 ± 0.015 |
| SIHA CERVIX | 0.513 ± 0.038 |
| DU4475 BREAST | 0.293 ± 0.18 |
| BT549 BREAST | 0.523 ± 0.2 |
| COLO320DM LARGE INTESTINE | 0.388 ± 0.0066 |
| T47D BREAST | 0.891 ± 0.041 |
| H23 LUNG | 0.622 ± 0.012 |
| NCIH441 LUNG | 0.715 ± 0.049 |
| HCT15 LARGE INTESTINE | 0.893 ± 0.032 |
| SCC90 HEADNECK | 0.301 ± 0.041 |
| MDAMB453 BREAST | 0.56 ± 0.032 |
| MG63 BONE | 0.167 ± 0.0053 |
| A549 LUNG | 0.729 ± 0.018 |
| MDAMB468 BREAST | 0.648 ± 0.054 |

Same assay, conditions: 1000 nM; exposure time: 5 days

| Test System | surviving fraction |
| --- | --- |
| NOS1 BONE | 0.0537 ± 0.007 |
| SUM149.B1*.S BREAST | 0.294 ± 0.016 |
| 93VU HEADNECK | 0.177 ± 0.005 |
| LM7 BONE | 0.397 ± 0.02 |
| 143B BONE | 0.763 ± 0.028 |
| SUM159 BREAST | 0.268 ± 0.092 |
| SUM149 BREAST | 0.356 ± 0.01 |
| MDAMB361 BREAST | 0.638 ± 0.0085 |
| SAOS2 BONE | 0.488 ± 0.018 |
| ASKA SYNOVIAL | 0.441 ± 0.037 |
| HCC1395 BREAST | 0.751 ± 0.16 |
| HCC1954 BREAST | 0.172 ± 0.023 |
| CME SYNOVIAL | 0.141 ± 0.0067 |
| VCAP PROSTATE | 0.144 ± 0.0072 |
| YAMATO SYNOVIAL | 0.133 ± 0.013 |
| HCC202 BREAST | 0.109 ± 0.0082 |
| HELA CERVIX | 0.55 ± 0.045 |
| SG27 HEADNECK | 0.184 ± 0.015 |
| CAL72 BONE | 0.564 ± 0.031 |
| MDAMB134 BREAST | 1.04 ± 0.037 |

| Test System | surviving fraction |
| --- | --- |
| C33A CERVIX | 0.25 ± 0.0067 |
| SKBR3 BREAST | 0.109 ± 0.015 |
| MHM BONE | 0.694 ± 0.054 |
| VP229 BREAST | 0.133 ± 0.015 |
| SYO1 SYNOVIAL | 0.117 ± 0.028 |
| ZR751 BREAST | 0.289 ± 0.024 |
| KPD BONE | 0.128 ± 0.016 |
| SIHA CERVIX | 0.419 ± 0.014 |
| DU4475 BREAST | 0.17 ± 0.078 |
| BT549 BREAST | 0.341 ± 0.079 |
| COLO320DM LARGE INTESTINE | 0.1 ± 0.006 |
| T47D BREAST | 0.631 ± 0.018 |
| H23 LUNG | 0.399 ± 0.007 |
| NCIH441 LUNG | 0.504 ± 0.061 |
| HCT15 LARGE INTESTINE | 0.442 ± 0.029 |
| SCC90 HEADNECK | 0.255 ± 0.067 |
| MDAMB453 BREAST | 0.426 ± 0.06 |
| MG63 BONE | 0.081 ± 0.0044 |
| A549 LUNG | 0.528 ± 0.033 |
| MDAMB468 BREAST | 0.329 ± 0.018 |
